Assay results as given in patent publication US11524948B2, “Prodrugs of alpha-ketoglutarate, alpha-ketobutyrate, alpha-ketoisovalerate, and alpha-ketoisohexanoate, and uses thereof” (The Regents of the University of California, priority 2018, dated 2022).
“Also recorded” adds a separate entry of the source.

Legend:
[1] = tested on: mTORC1; test: Western blot of mTORC1 signaling in H9C2 rat cardiomyocytes; format: cell-based; details: H9C2 cells; for mTORC1 signaling (phosphorylation of mTORC1 targets S6K (T389), 4E-BP1 (S65), ULK1 (S757)): western blot, FIGS. 2A, 2B, 2C, 2F
Description: (§1) H9C2 rat cardiomyocyte cells were grown in DMEM media (ATCC #30-2002) supplemented with 10% FBS. Stock solutions of MJX series compounds were prepared in DMSO, while the stock solution of α-ketobutyrate was prepared in dH2O. Cells were seeded in the afternoon at 70-80% confluency and the next morning treated with the indicated concentrations of compounds for the indicated times. Cells were then washed with ice-cold PBS and immediately lysed on ice with RIPA buffer. Lysates were clarified at 18,000 g at 4° C., the supernatants transferred to new tubes, mixed with […] of 5×SDS-PAGE loading buffer, and heated for 10 minutes at 70° C. Lysates were then separated by SDS-PAGE using 4-12% Bis-Tris gels (Life Technologies) and transferred to PVDF membranes (Millipore) for western blotting analysis. All antibodies were purchased from Cell Signaling.

[2] = tested on: AMPK signaling pathway; test: Western blot of AMPK signaling in H9C2 rat cardiomyocytes; format: cell-based; details: H9C2 cells; for activation of AMPK signaling pathway (phosphorylation of AMPK targets ACC (S79) and ULK1 (S555)): western blot, FIGS. 2A, 2B; for activation of AMPK signaling pathway (phosphorylation of AMPK targets ACC (S79) and ULK1 (S555)) / time course of AMPK activation: 2F; for time course of AMPK activation: 15 min to 8 hr, FIGS. 2C, 2E; for activation of AMPK, dose-response: FIG. 2D
Description: as §1

[3] = tested on: Caenorhabditis elegans; test: Lifespan of N2 wildtype C. elegans on NGM treatment plates containing compound; format: in vivo; set-up: mean lifespan: unit not given here; details: for % increase (mean lifespan): vs DMSO; for effect on C. elegans lifespan: FIGS. 1A-1C, result in words
Description: The anti-aging effects of MJX001-MJX005 were tested in the nematode Caenorhabditis elegans. Worms of the N2 wildtype strain of C. elegans were age-synchronized by performing either a timed egg lay or an egg preparation (mix <100 gravid worms in 70 μl M9 buffer, 25 μl bleach and 5 μl 10 N NaOH). Once the worms reached day 1 of adulthood, they were picked onto NGM treatment plates containing 1.5% dimethyl sulfoxide (DMSO; Sigma D8418), 49.5 μM 5-fluoro-2′-deoxyuridine (FUDR, Sigma F0503), and either […] (Sigma K401) or one of the MJX series test compounds. All plates were adjusted to pH 6.0 (i.e., the same pH as the control plates) if necessary by the addition of NaOH. Once dry, the plates were seeded with OP50 E. coli as the C. elegans food source. […] Worms were moved to new plates every 4 days. All worms were maintained in a single humidified, temperature-controlled incubator at 20° C. Lifespan curves were generated and statistical analyses performed.

[4] = tested on: H9C2 Cells; test: [U-13C6]glucose tracing of metabolites in H9C2 cells (LC-MS); format: cell-based, rat; details: 24 h, FIG. 4
Description: To evaluate the metabolic pathways in use, H9C2 Cells were cultured with designated compounds and medium containing [U-^13C6]glucose for 24 h. Metabolites were extracted for LC-MS detection.

[5] = tested on: C57BL/6 mice; test: Hair regrowth in shaved C57BL/6 mice, topical application; format: in vivo, mouse
Description: The effects of the compounds on mouse models were evaluated. […] Mouse dorsal hair was shaved by trimmer on week 7 and MJX002 was dissolved in Transdermal Gel at 16 mM and applied on the dorsal skin every other day. Mice were monitored for the appearance of skin pigmentation, which signals the initiation of anagen. […] (FIG. 7)

[6] = tested on: mTORC2; test: Western blot of mTORC2 signaling in H9C2 rat cardiomyocytes; format: cell-based; details: H9C2 cells, FIGS. 2C; for mTORC2 activity (phosphorylation of Akt (S473)): 2F; for time course of inhibition of mTORC2 (decreased phosphorylation of Akt (S473)): 2E
Description: as §1

[7] = tested on: mTOR signaling; test: Western blot of mTOR signaling in H9C2 rat cardiomyocytes; format: cell-based; details: H9C2 cells; for time course of inhibition of mTOR signaling: 15 min to 8 hr, FIGS. 2C, 2E, 2F; for inhibition of mTOR signaling, dose-response: FIG. 2D
Description: as §1

[8] = tested on: H9C2 Cells; test: Proliferation of H9C2 cells; format: cell-based, rat; details: FIGS. 6A & 6B
[9] = tested on: C57BL/6 mice; details: stated as known; cited from earlier work
[10] = 1 mM, FIG. 1C experiment, DMSO control 14.8
[11] = 2 mM, FIG. 1C experiment, DMSO control 14.8
[12] = 4 mM, FIG. 1C experiment, DMSO control 14.8
[13] = 4 mM, FIG. 1A experiment, DMSO control 11.7
[14] = 4 mM, FIG. 8 experiment, DMSO control 15.3
[15] = 2 mM, FIG. 1B experiment, DMSO control 15.3
[16] = 4 mM, FIG. 1B experiment, DMSO control 15.3
[17] = after only 15 minutes treatment, FIG. 2C

## C/C=C1\OC(C)OC1=O (stereo not shown) [MJX003]
[1]
  mTORC1 signaling (phosphorylation of mTORC1 targets S6K (T389), 4E-BP1 (S65), ULK1 (S757)): no significant effect
[2]; FIG. 2A
  phosphorylation of T172 in AMPK: Increased phosphorylation
[2]
  activation of AMPK signaling pathway (phosphorylation of AMPK targets ACC (S79) and ULK1 (S555)): activate the AMPK signaling pathway
[3]; [10]
  mean lifespan: 14.8
[3]; 1 mM, FIG. 1C experiment
  % increase (mean lifespan): −0.2%
[3]; [11]
  mean lifespan: 12.5
[3]; 2 mM, FIG. 1C experiment
  % increase (mean lifespan): −15.3%
[3]; [12]
  mean lifespan: 12.9
[3]; 4 mM, FIG. 1C experiment
  % increase (mean lifespan): −12.7%
[3]
  effect on C. elegans lifespan: decreased C. elegans lifespan

## C/C=C(\OC(C)=O)C(=O)OCC [MJX001]
[1]
  mTORC1 signaling (phosphorylation of mTORC1 targets S6K (T389), 4E-BP1 (S65), ULK1 (S757)): no significant effect
[2]
  activation of AMPK signaling pathway (phosphorylation of AMPK targets ACC (S79) and ULK1 (S555)): activate the AMPK signaling pathway
[3]; [10]
  mean lifespan: 12.9
[3]; 1 mM, FIG. 1C experiment
  % increase (mean lifespan): −12.9%
[3]; [11]
  mean lifespan: 11.5
[3]; 2 mM, FIG. 1C experiment
  % increase (mean lifespan): −22.4%
[3]; [12]
  mean lifespan: 11.1
[3]; 4 mM, FIG. 1C experiment
  % increase (mean lifespan): −24.8%
[3]
  effect on C. elegans lifespan: decreased C. elegans lifespan

## CCOC(=O)C(CC)(OCC)OC(C)=O (stereo not shown) [MJX002]
[4]
  M2 citrate using [U-13C6]glucose as a tracer: decreased M2 citrate
[1]
  mTORC1 signaling (phosphorylation of mTORC1 targets S6K (T389), 4E-BP1 (S65), ULK1 (S757)): no significant effect
[5]; 6 week old C57BL/6 mice, 16 mM in Transdermal Gel on dorsal skin every other day
  hair regrowth: stimulates hair regrowth
[5]; C57BL/6 mice, 16 mM topical every other day, after 40 days, FIG. 7
  skin pigmentation and hair growth: accelerated pigmentation and hair growth
[2]
  activation of AMPK signaling pathway (phosphorylation of AMPK targets ACC (S79) and ULK1 (S555)): activate the AMPK signaling pathway
[3]; 100 μM, FIG. 1A experiment, DMSO control 11.7
  mean lifespan: 11.9
[3]; 100 μM, FIG. 1A experiment
  % increase (mean lifespan): 1.9%
[3]; 300 μM, FIG. 1A experiment, DMSO control 11.7
  mean lifespan: 13.2
[3]; 300 μM, FIG. 1A experiment
  % increase (mean lifespan): 13.0%
[3]; 1 mM, FIG. 1A experiment, DMSO control 11.7
  mean lifespan: 12.2
[3]; 1 mM, FIG. 1A experiment
  % increase (mean lifespan): 4.2%
[3]; [13]
  mean lifespan: 16.4
[3]; 4 mM, FIG. 1A experiment
  % increase (mean lifespan): 40.0%
[3]
  effect on C. elegans lifespan: dose-dependent increases in lifespan

## C/C=C1\OC(CCC(=O)OCC)(C(=O)OCC)OC1=O (stereo not shown) [MJX006]
[6]
  mTORC2 activity (phosphorylation of Akt (S473)): inhibit mTORC1 and mTORC2 signaling
[1]
  mTORC1 signaling (phosphorylation of mTORC1 targets S6K (T389), 4E-BP1 (S65), ULK1 (S757)): inhibit mTORC1 and mTORC2 signaling
[7]
  time course of inhibition of mTOR signaling: exhibited similar kinetics; also recorded: only inhibited mTOR signaling transiently
[2]
  time course of AMPK activation: highest at 15 and 30 minutes, is weaker but still evident at 1 hour, and has largely returned to baseline by 2 hours
  activation of AMPK signaling pathway (phosphorylation of AMPK targets ACC (S79) and ULK1 (S555)): rapidly promote AMPK activity
[3]; 1 mM, FIG. 8 experiment, DMSO control 15.3
  mean lifespan: 16.2
[3]; 1 mM, FIG. 8 experiment
  % increase (mean lifespan): 6.3%
[3]; 2 mM, FIG. 8 experiment, DMSO control 15.3
  mean lifespan: 19.0
[3]; 2 mM, FIG. 8 experiment
  % increase (mean lifespan): 24.2%
[3]; [14]
  mean lifespan: 17.4
[3]; 4 mM, FIG. 8 experiment
  % increase (mean lifespan): 13.9%
[3]; all three tested doses (1, 2, 4 mM), FIG. 8, result in words
  N2 C. elegans lifespan: extended significantly

## C/C=c1\oc(=O)/c(=C/C)oc1=O [MJX004]
[4]
  M2 citrate using [U-13C6]glucose as a tracer: decreased M2 citrate
[6]
  time course of inhibition of mTORC2 (decreased phosphorylation of Akt (S473)): strongest after just 15 and 30 minutes treatment, but recovered to normal levels by 2 hr and beyond
[1]; at 4 and 8 hr, FIG. 2E
  inhibition of mTORC1: sustained inhibition of mTORC1
[1]
  mTORC1 signaling (phosphorylation of mTORC1 targets S6K (T389), 4E-BP1 (S65), ULK1 (S757)): inhibited mTORC1 signaling
[7]
  time course of inhibition of mTOR signaling: less potent but more prolonged; also recorded: more prolonged effect on mTOR signaling
[2]
  time course of AMPK activation: less potent but more prolonged
  activation of AMPK signaling pathway (phosphorylation of AMPK targets ACC (S79) and ULK1 (S555)): activate the AMPK pathway
[2]; at 4 hr, FIG. 2E
  activation of AMPK: strong activation of AMPK
[8]
  effect on proliferation (inhibition), rank order: strongest effect on proliferation
[3]; 1 mM, FIG. 1B experiment, DMSO control 15.3
  mean lifespan: 19.7
[3]; 1 mM, FIG. 1B experiment
  % increase (mean lifespan): 28.7%
[3]; [15]
  mean lifespan: 20.0
[3]; 2 mM, FIG. 1B experiment
  % increase (mean lifespan): 30.9%
[3]; [16]
  mean lifespan: 21.1
[3]; 4 mM, FIG. 1B experiment
  % increase (mean lifespan): 38.0%
[3]
  effect on C. elegans lifespan: dose-dependent increases in lifespan

## C/C=C1\OC(CC)(C(=O)OCC)OC1=O (stereo not shown) [MJX005]
[6]
  time course of inhibition of mTORC2 (decreased phosphorylation of Akt (S473)): strongest after just 15 and 30 minutes treatment, but recovered to normal levels by 2 hr and beyond
  mTORC2 activity (phosphorylation of Akt (S473)): inhibits both mTORC1 and mTORC2 activity
[1]
  mTORC1 signaling (phosphorylation of mTORC1 targets S6K (T389), 4E-BP1 (S65), ULK1 (S757)): inhibited mTORC1 signaling; also recorded: inhibits both mTORC1 and mTORC2 activity
[7]; 0.8 mM or lower
  inhibition of mTOR signaling, dose-response: no significant effect
[7]; 1.6 mM
  inhibition of mTOR signaling, dose-response: modest effect
[7]; 3.2 mM
  inhibition of mTOR signaling, dose-response: strong effect
[7]
  time course of inhibition of mTOR signaling: greatly diminished by 2 hr and largely absent at 4 hr and 8 hr; also recorded: only inhibited mTOR signaling transiently
[7]; [17]
  inhibition of mTOR signaling: inhibition of mTOR signaling
[2]
  activation of AMPK compared with α-ketobutyrate: more potent activation of AMPK than α-ketobutyrate
  time course of AMPK activation: greatly diminished by 2 hr and largely absent at 4 hr and 8 hr
  activation of AMPK signaling pathway (phosphorylation of AMPK targets ACC (S79) and ULK1 (S555)): activate the AMPK pathway
[2]; 0.8 mM or lower
  activation of AMPK, dose-response: no significant effect
[2]; 1.6 mM
  activation of AMPK, dose-response: modest effect
[2]; 3.2 mM
  activation of AMPK, dose-response: strong effect
[2]; [17]
  activation of AMPK: strong activation of AMPK
[3]; [15]
  mean lifespan: 18.2
[3]; 2 mM, FIG. 1B experiment
  % increase (mean lifespan): 19.1%
[3]; [16]
  mean lifespan: 19.6
[3]; 4 mM, FIG. 1B experiment
  % increase (mean lifespan): 27.7%
[3]
  effect on C. elegans lifespan: dose-dependent increases in lifespan

## α-ketobutyric acid (2-oxobutanoic acid) [aKB, reference compound]
[9]
  hair loss in old C57BL/6 mice: prevents hair loss
  hair regrowth in mice: stimulates hair regrowth
[3]; [13]
  mean lifespan: 17.7
[3]; 4 mM, FIG. 1A experiment
  % increase (mean lifespan): 51.0%
[3]; [16]
  mean lifespan: 20.4
[3]; 4 mM, FIG. 1B experiment
  % increase (mean lifespan): 33.3%
[3]; [12]
  mean lifespan: 19.7
[3]; 4 mM, FIG. 1C experiment
  % increase (mean lifespan): 33.3%
[3]; [14]
  mean lifespan: 19.1
[3]; 4 mM, FIG. 8 experiment
  % increase (mean lifespan): 24.6%
